Experimental data from ChEMBL document CHEMBL5512601, “Small-molecule inhibitors targeting apoptosis signal-regulated kinase 1” (Eur J Med Chem, 2023).
Values belong to the compound of their own block, whether it stands above or below them.

Assays:
[1] = molecular target: T1, Mitogen-activated protein kinase kinase kinase 5 (Homo sapiens, UniProt Q99683); experiment: Inhibition of ASK1 (unknown origin)
T1 sequence (Q99683 whole entry): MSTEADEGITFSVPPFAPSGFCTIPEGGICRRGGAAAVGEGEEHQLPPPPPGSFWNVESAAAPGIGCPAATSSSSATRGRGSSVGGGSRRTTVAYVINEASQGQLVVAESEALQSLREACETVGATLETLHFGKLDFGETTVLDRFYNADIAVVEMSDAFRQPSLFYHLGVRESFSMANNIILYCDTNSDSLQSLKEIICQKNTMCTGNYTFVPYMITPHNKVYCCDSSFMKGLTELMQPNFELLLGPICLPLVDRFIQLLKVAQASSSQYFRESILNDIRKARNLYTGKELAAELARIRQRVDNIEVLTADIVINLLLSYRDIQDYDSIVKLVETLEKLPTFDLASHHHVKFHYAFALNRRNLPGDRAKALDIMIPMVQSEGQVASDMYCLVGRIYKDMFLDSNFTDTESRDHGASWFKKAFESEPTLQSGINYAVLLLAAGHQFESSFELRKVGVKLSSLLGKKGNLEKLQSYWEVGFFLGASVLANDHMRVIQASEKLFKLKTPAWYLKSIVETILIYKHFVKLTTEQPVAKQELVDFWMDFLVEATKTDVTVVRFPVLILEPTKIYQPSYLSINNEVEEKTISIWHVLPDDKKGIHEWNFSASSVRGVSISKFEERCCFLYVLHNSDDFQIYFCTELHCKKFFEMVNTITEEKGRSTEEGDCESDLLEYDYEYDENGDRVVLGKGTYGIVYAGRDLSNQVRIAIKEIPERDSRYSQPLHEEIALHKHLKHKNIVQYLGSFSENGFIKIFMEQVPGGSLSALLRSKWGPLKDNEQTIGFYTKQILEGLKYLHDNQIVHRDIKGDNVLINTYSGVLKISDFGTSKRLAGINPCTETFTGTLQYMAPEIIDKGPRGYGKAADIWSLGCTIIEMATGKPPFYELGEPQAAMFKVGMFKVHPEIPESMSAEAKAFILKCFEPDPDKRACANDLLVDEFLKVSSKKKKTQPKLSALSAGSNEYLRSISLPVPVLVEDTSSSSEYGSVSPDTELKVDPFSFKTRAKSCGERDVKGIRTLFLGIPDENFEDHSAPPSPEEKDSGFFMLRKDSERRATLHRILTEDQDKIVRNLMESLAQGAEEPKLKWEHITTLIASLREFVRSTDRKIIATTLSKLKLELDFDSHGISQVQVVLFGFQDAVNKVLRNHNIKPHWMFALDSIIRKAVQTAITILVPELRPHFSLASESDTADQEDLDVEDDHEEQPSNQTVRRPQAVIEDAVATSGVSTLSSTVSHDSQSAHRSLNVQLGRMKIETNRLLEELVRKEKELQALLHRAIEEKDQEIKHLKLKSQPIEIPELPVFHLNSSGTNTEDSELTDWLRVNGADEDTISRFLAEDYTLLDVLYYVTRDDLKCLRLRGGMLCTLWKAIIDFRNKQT

[2] = molecular target: T1, Mitogen-activated protein kinase kinase kinase 5; experiment: Inhibition of human recombinant ASK1 by HTRF assay
[3] = molecular target: T1, Mitogen-activated protein kinase kinase kinase 5; experiment: Inhibition of ASK1 in HEK293 cells; type: cell-based
[4] = Apparent permeability of compound across apical to basolateral side in human Caco2 cells; type: ADME, cell-based; settings: Caco-2
[5] = Half life in Sprague-Dawley rat at 1 mg/kg, iv by LC-MS/MS analysis; type: ADME, organism-based; settings: in vivo
[6] = Oral bioavailability in Sprague-Dawley rat at 1 mg/kg by LC-MS/MS analysis; type: ADME, organism-based; settings: in vivo
[7] = molecular target: T1, Mitogen-activated protein kinase kinase kinase 5; experiment: Inhibition of human ASK1
[8] = Toxicity in C57BL/6J mouse harboring SOD1 mutant assessed as animal survival (reference value: 1.06%); settings: in vivo, read-out: Activity
[9] = Cmax in rat 5 mg/kg, po measured upto 24 hrs by LC-MS/MS analysis; type: ADME, organism-based; settings: in vivo
[10] = AUC (0 to t) in rat 5 mg/kg, po measured upto 24 hrs by LC-MS/MS analysis; type: ADME, organism-based; settings: in vivo
[11] = Half life in rat 5 mg/kg, po measured upto 24 hrs by LC-MS/MS analysis; type: ADME, organism-based; settings: in vivo
[12] = molecular target: T1, Mitogen-activated protein kinase kinase kinase 5; experiment: Inhibition of N-terminal his-tagged human ASK1 (649 to 946 residues) expressed in Escherichia coli using [gamma-32p]ATP as substrate by liquid scintillation counting analysis
[13] = molecular target: T1, Mitogen-activated protein kinase kinase kinase 5; experiment: Inhibition of human ASK1 using STK-substrate biotin as substrate by TR-FRET assay
[14] = molecular target: T1, Mitogen-activated protein kinase kinase kinase 5; experiment: Inhibition of ASK1 (unknown origin) incubated for 0.5 to 5 hrs by TR-FRET assay
[15] = molecular target: T1, Mitogen-activated protein kinase kinase kinase 5; experiment: Inhibition of full length GST-tagged recombinant human ASK1 using MBP as substrate incubated for 20 mins by cell based assay
[16] = molecular target: T1, Mitogen-activated protein kinase kinase kinase 5; experiment: Inhibition of ASK1 (unknown origin) preincubated with compound for 30 mins followed by ATP addition and measured after 120 mins by HTRF analysis
[17] = molecular target: 3-phosphoinositide-dependent protein kinase 1 (Homo sapiens) (UniProt O15530); experiment: Inhibition of PDK1 (unknown origin) at 10 uM relative to control
3-phosphoinositide-dependent protein kinase 1 (Homo sapiens), sequence (O15530 whole entry, looked up): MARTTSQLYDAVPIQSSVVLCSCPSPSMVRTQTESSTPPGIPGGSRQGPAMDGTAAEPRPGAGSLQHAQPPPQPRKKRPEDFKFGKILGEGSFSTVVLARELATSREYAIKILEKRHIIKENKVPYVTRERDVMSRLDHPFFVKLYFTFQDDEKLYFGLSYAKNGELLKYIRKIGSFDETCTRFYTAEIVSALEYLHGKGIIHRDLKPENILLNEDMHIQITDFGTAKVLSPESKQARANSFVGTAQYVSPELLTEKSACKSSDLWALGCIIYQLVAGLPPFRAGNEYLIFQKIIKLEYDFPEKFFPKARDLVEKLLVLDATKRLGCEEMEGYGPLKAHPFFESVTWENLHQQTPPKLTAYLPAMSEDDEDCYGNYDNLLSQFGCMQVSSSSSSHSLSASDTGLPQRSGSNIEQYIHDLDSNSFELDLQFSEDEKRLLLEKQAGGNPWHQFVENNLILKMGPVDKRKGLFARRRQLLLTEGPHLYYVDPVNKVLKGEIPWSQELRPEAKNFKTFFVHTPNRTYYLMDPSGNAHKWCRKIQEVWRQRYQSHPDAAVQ

Structure (SMILES): CC(C)n1cnnc1-c1nc(NC(=O)c2cc3c(cc2F)C(=O)NCc2nc(C4CC4)cn2-3)cs1
IC50 [1]: > 50 nM

Structure (SMILES): COc1cc2nncc(Oc3ccc(NC(=O)c4cn(C(C)C)c5c(c4=O)CCC=C5)cc3)c2cc1OC
IC50 [7]: 6 nM
survival [8]: 1.08%

Structure (SMILES): C=C(C)[C@@H]1CC[C@]2(C(=O)On3nnc4ccccc43)CC[C@]3(C)[C@H](C[C@@H](O)[C@@H]4[C@@]5(C)C(CC(=O)OCC)OC(C)(C)C5CC[C@]43C)[C@@H]12 (stereo partly specified)
IC50 [12]: 5.08 nM

Structure (SMILES): C=C(C)[C@@H]1CC[C@]2(C(=O)O)CC[C@]3(C)[C@H](C[C@@H](O)[C@@H]4[C@@](C)([C@H](O)CC(=O)O)[C@H](C(=C)C)CC[C@]43C)[C@@H]12
IC50 [12]: 407 nM

Structure (SMILES): Cc1cc(F)c(C(=O)Nc2cccc(-c3nnc4ncncn34)n2)cc1-n1cnc(C2CC2)c1
IC50 [14]: 14 nM

Structure (SMILES): CC(C)n1cnnc1-c1nc(NC(=O)c2cc3c(cc2F)CNCc2nc(C4CC4)cn2-3)cs1
IC50 [1]: > 50 nM

Structure (SMILES): C=C(C)[C@@H]1CC[C@]2(C(=O)O)CC[C@]3(C)[C@H](C[C@@H](O)[C@@H]4[C@@]5(C)C(CC(=O)O)OC(C)(C)C5CC[C@]43C)[C@@H]12 (stereo partly specified)
IC50 [12]: 449 nM

Structure (SMILES): CC(C)n1cnnc1-c1nc(NC(=O)c2cc3c(cc2F)CCCc2nc(C4CC4)cn2-3)cs1
IC50 [1]: > 50 nM

Structure (SMILES): C[C@H](CO)n1cnnc1-c1cccc(N2CCN(c3ccc(C(=O)N4CCCCC4)cn3)C2=O)n1
IC50 [2]: ≤ 50 nM
EC50 [13]: ≤ 50 nM

Structure (SMILES): CC(C)n1cnnc1-c1cccc(NC(=O)c2cc3c(cc2F)CNCc2c(C4CC4)ncn2-3)n1
IC50 [1]: < 10 nM

Structure (SMILES): Cc1cc(F)c(C(=O)Nc2cccc(-c3nnc4[nH]ccn34)n2)cc1-n1cnc(C2CC2)c1
IC50 [14]: 6.7 nM

Structure (SMILES): Cc1cc(F)c(C(=O)Nc2cccc(-c3nnc4n3CCOC4)n2)cc1-n1cnc(C2CC2)c1
IC50 [14]: 6.1 nM

Structure (SMILES): Cc1cc(F)c(C(=O)Nc2cccc(-c3nnc4n3CCCC4)n2)cc1-n1cc(C2CC2)nn1
IC50 [15]: > 100 nM

Structure (SMILES): CC(C)n1cnnc1-c1cccc(NC(=O)c2cc3c(cc2F)CNCc2nc(C4CC4)cn2-3)n1
IC50 [1]: < 10 nM

Structure (SMILES): Cn1nc(C(F)(F)F)c2cc(C(=O)Nc3cccc(-c4nncn4C4CC4)n3)c(=O)[nH]c21
IC50 [1]: 2660 nM
inhibition [17]: 42.9%

Next, values leading:

IC50 [2]: 0.7 nM
Structure (SMILES): CC(C)n1cnnc1-c1cccc(C(=O)Nc2cc(-n3cnc(C4CC4)c3)ccn2)n1

IC50 [1]: < 10 nM
Structure (SMILES): CC(C)n1cnnc1-c1cccc(NC(=O)c2cc3c(cc2F)CCCc2nc(C4CC4)cn2-3)n1

IC50 [1]: 5.91 nM
Structure (SMILES): CC(C)n1cnnc1-c1cccc(N2CC(C)(C)c3ccc(-n4cnc(C5CC5)c4)cc3C2=O)n1

EC50 [3]: 3.4 nM
Papp A→B [4]: 3.1 ×10⁻⁶ cm/s
half-life [5]: 0.59 h
bioavailability [6]: 11%
Structure (SMILES): CC(C)n1cnnc1-c1cccc(NC(=O)c2cccc(-n3cnc(C4CC4)c3)c2)n1

IC50 [2]: 50 nM
Structure (SMILES): Cc1ccc(-c2cnc(-c3cccc(-c4nncn4C(C)C)n3)s2)c(F)c1

IC50 [1]: < 10 nM
Structure (SMILES): CC(C)n1cnnc1-c1cccc(NC(=O)c2cc3c(cc2F)COCc2nc(C4CC4)cn2-3)n1

IC50 [1]: 1.65 nM
Structure (SMILES): COc1cc2ccn(-c3cccc(-c4nncn4C(C)C)n3)c(=O)c2cc1-n1cnc(C2CC2)c1

Cmax [9]: 2270 ng/mL
AUC(0-t) at 24 h [10]: 9430 ng·h/mL
half-life [11]: 2.9 h
Structure (SMILES): Cc1cc2c(cc1-n1cnc(C3CC3)c1)C(=O)N(c1cccc(-c3nncn3C(C)C)n1)C2C (stereo unspecified)

EC50 [13]: ≤ 500 nM
Structure (SMILES): Cc1ccc(NC(=O)Nc2cccc(-c3nncn3C(C)C)n2)c(F)c1

EC50 [13]: ≤ 5000 nM
Structure (SMILES): Cc1ccc(N(C)C(=O)Nc2cccc(-c3nncn3C(C)C)n2)c(F)c1

IC50 [1]: 5.09 nM
IC50 [14]: 3.9 nM
Structure (SMILES): CC(C)n1nnnc1-c1cccc(N2C(=O)c3cc(-n4cnc(C5CC5)c4)ccc3C2(C)C)n1

IC50 [16]: 1.14 nM
Structure (SMILES): CC(C)n1cnnc1-c1cccc(-c2coc3ccc(-n4cnc(C5CC5)c4)cc3c2=O)n1
